Source: patent US20140004530A1, “METHOD FOR THE EVALUATION OF COMPOUND-TARGET INTERACTIONS ACROSS SPECIES” (CELLZOME GMBH, priority 2010, published 2014)
One block for each molecule: values may come before it.

Key:
[1] = molecular target: T1, PI3Kβ (Rattus norvegicus, UniProt Q9Z1L0); assay: Competition binding profile with the affinity matrix in mixed extracts of human and rodent cell lines; conditions: mixed extracts of human (Jurkat) and rat RBL-1 cells
T1 construct: acquired in mixed extracts of human, mouse and rat cell lines; endogenous in cells
Procedure: (§1) Since compound efficacy and toxicity are evaluated in laboratory animals, it is important to determine its potency and selectivity in the relevant species. In order to minimize inter-assay variation, we used a mass spectrometric targeted data acquisition approach (Savitski et al., 2010. J. Am. Soc. Mass. Spectrom. 21(10):1668-1679) based on species specific proteotypic peptides (FIG. 7) and mixed cell lysates. Competition binding profiles of compound 2 with the affinity matrix were acquired in mixed extracts of human, mouse and rat cell lines.
(§2) Proteomics-based inhibitor profiling. Affinity profiling assays were performed as described previously ([…]). Derivatized sepharose® beads (35 μl beads per sample) were equilibrated in lysis buffer and incubated with 1 ml (5 mg protein) cell lysate, which had been preincubated with test compound or vehicle for 45 min, on an end-over-end shaker for 1 hour. Incubation was done at 4° C. for all compounds. Beads were transferred to disposable columns (MoBiTec), washed with lysis buffer containing 0.2% NP-40 and eluted with 50 μl 2× SDS sample buffer. Proteins were alkylated with […] iodoacetamide for 30 minutes, separated on 4-12% NuPAGE (Invitrogen), and stained with colloidal Coomassie.
(§3) Sample preparation for mass spectrometry. Gels were cut into slices across the entire separation range and subjected to in-gel digestion. Peptide extracts were labeled with tandem mass tags (TMT®) (Thermo-Fisher Scientific) in 40 mM triethylammoniumbicarbonate (TEAB), pH 8.53. After quenching of the reaction with glycin labeled extracts were combined. For compound profiling experiments extracts from vehicle treated samples were labeled with TMT® reagent 131, and combined with extracts from compound-treated samples labeled with TMT® reagents 126-130, optionally fractionated using reversed phase chromatography at pH 12, dried and acidified prior to LC-MS/MS analysis.
(§4) LC-MS/MS analysis. Samples were dried in vacuo and resuspended in 0.1% formic acid in water and aliquots of the sample were injected into a nano-LC system (Eksigent 1 D+) coupled to LTQ-Orbitrap mass spectrometers (Thermo-Finnigan). Peptides were separated on custom 50 cm×[…] (internal diameter) reversed-phase columns (Reprosil) at 40° C. Gradient elution was performed from 2% acetonitrile to 40% acetonitrile in 0.1% formic acid over 2-4 hours. […] Intact peptides were detected in the Orbitrap at 30.000 resolution. […]
(§5) Creation of peptide inclusion lists. […] Subsequently for each human and mouse (or rat) protein that was of interest to the study the selected peptides were ranked according to the quality of the quantification and ease of identification inherent to these peptides (Savitski et al., 2010, J. Am. Soc. Mass. Spectrom. 21(10):1668-1679). […]
(§6) Peptide and protein quantification. […]

[2] = molecular target: T2, PI3Kβ (Mus musculus, UniProt Q8BTI9); assay: as above; conditions: mixed extracts of human (Jurkat) and mouse RAW264.7 cells
T2 construct: acquired in mixed extracts of human, mouse and rat cell lines; endogenous in cells
Procedure: as §1, §2, §3, §4, §5, §6

[3] = molecular target: T3, PI3Kγ (Mus musculus, UniProt Q9JHG7); assay: as above; conditions: mixed extracts of human (Jurkat) and mouse RAW264.7 cells
T3 construct: acquired in mixed extracts of human, mouse and rat cell lines; endogenous in cells
Procedure: as §1, §2, §3, §4, §5, §6

[4] = test system: PI3Kγ; assay: as above; conditions: mixed extracts of human (Jurkat) and rat RBL-1 cells
Procedure: as §1, §2, §3, §4, §5, §6

[5] = molecular target: T4, PIK3Ca (Homo sapiens, UniProt P42336); assay: Competition binding to affinity matrix in mixed human/mouse cell lysate, quantitative MS of species-specific peptides; conditions: for IC50: HL-60 + RAW 264.7 mixed lysate
T4 construct: Cell lysates from a human (HL60) and a mouse cell line (Raw 264.7) were prepared; endogenous in cells; host or cells: HL60
T4 sequence (P42336 whole entry): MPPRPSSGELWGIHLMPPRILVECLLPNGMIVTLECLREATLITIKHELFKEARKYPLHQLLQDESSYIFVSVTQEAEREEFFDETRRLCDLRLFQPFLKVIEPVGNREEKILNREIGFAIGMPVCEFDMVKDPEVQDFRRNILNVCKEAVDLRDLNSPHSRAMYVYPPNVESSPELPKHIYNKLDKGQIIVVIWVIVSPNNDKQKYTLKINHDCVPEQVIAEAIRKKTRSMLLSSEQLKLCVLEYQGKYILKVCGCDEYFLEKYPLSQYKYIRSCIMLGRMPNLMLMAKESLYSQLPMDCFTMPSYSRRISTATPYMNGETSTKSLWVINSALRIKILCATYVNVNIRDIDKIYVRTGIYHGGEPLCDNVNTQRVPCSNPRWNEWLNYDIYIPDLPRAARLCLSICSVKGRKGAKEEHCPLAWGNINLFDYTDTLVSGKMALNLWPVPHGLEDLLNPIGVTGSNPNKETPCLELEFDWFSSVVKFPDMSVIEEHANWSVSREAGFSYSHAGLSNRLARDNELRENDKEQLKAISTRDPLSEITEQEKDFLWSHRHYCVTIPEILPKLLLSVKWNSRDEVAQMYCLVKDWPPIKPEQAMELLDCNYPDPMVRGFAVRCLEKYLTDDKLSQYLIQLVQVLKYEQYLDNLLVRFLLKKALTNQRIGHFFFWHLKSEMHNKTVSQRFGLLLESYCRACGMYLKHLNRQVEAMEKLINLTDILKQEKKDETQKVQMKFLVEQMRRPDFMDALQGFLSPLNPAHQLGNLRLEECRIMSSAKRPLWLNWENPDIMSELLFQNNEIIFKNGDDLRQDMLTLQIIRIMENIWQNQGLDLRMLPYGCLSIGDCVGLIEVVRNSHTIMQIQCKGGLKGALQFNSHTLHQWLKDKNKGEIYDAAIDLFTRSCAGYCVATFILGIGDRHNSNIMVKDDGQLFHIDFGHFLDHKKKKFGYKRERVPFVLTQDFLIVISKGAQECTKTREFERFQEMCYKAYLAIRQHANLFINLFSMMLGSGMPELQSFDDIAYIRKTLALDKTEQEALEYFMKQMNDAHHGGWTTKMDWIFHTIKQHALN
T4 sequence (P27986 whole entry partner): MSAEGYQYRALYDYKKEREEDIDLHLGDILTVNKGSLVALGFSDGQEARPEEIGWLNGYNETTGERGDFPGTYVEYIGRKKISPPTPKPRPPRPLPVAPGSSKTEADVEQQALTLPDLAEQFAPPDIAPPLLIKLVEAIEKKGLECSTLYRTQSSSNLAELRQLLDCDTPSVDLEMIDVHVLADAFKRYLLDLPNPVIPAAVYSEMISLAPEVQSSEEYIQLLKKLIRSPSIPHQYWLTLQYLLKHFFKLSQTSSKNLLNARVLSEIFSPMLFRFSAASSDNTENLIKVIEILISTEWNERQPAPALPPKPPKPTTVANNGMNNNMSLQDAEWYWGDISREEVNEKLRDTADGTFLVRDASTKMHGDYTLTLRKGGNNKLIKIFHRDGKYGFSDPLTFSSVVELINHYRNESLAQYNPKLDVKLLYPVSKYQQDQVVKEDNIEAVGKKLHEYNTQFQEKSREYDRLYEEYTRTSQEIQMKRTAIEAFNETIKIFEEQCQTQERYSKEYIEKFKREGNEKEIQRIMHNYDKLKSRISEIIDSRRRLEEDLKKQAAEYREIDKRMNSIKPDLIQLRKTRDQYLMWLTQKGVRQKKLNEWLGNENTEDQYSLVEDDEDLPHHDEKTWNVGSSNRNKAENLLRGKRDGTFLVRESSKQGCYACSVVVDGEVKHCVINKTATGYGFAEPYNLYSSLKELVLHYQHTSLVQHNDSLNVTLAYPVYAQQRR
Procedure: (§7) Cell lysates from a human (HL60) and a mouse cell line (Raw 264.7) were prepared and subsequently mixed at a 1:1 ratio. Compound 1 was added at various concentrations (3 μM, 0.75 μM, 0.047 μM, 0.012 μM, plus DMSO solvent control) to aliquots of this mixed cell lysate and allowed to bind to the proteins in the lysate. Subsequently, the affinity matrix (beads with immobilized ligands) was added to each aliquot to capture proteins that were not interacting with compound 1. The generation of the affinity matrix (beads with immobilized ligands) was described in WO 2009/098021.
(§8) After the incubation time of 60 minutes the beads with captured proteins were separated from the lysate and bead bound proteins were eluted in SDS sample buffer and subsequently separated by SDS-Polyacrylamide gel electrophoresis. Electrophoresis was stopped after 20 minutes and the gel was stained with colloidal Coomassie. The stained area of each gel lane was cut out and subjected to in-gel proteolytic digestion with trypsin. Peptides originating from the different aliquots treated with compound 1 and the DMSO solvent control were labeled with isobaric tagging reagents (Tandem mass tag (TMT®) reagents, Thermofisher). The TMT® reagents are a set of multiplexed, amine-specific, stable isotope reagents that can label peptides in up to six different biological samples enabling simultaneous identification and quantitation of peptides. The combined samples were analyzed with a nano-flow liquid chromatography system coupled online to a tandem mass spectrometer (LC-MS/MS) experiment followed by reporter ion quantitation in the MS/MS spectra (Ross et al., 2004. Mol. Cell. Proteomics 3(12):1154-1169; Dayon et al., 2008. Anal. Chem. 80(8):2921-2931; Thompson et al., 2003. Anal. Chem. 75(8):1895-1904). Further experimental protocols can be found in WO2006/134056 and a previous publication (Bantscheff et al., 2007. Nature Biotechnology 25, 1035-1044).
(§9) Cells were homogenized in a Potter S homogenizer in lysis buffer: 50 mM Tris-HCl, 0.8% NP40, 5% glycerol, 150 mM NaCl, 1.5 mM MgCl2, 25 mM NaF, 1 mM sodium vanadate, 1 mM DTT, pH 7.5. One complete EDTA-free tablet (protease inhibitor cocktail, Roche Diagnostics, 1 873 580) per 25 ml buffer was added. The material was dounced 20 times using a mechanized POTTER S, transferred to 50 ml falcon tubes, incubated for 30 minutes rotating at 4° C. and spun down for 10 minutes at 20,000×g at 4° C. (10,000 rpm in Sorvall SLA600, precooled). The supernatant was transferred to an ultracentrifuge (UZ)-polycarbonate tube (Beckmann, 355654) and spun for 1 hour at 145.000×g at 4° C. (40.000 rpm in Ti50.2, pre-cooled). The supernatant was transferred again to a fresh 50 ml falcon tube, the protein concentration was determined by a Bradford assay (BioRad) and samples containing 5 mg of protein per aliquot were prepared. The samples were immediately used for experiments or frozen in liquid nitrogen and stored frozen at −80° C. Cell extracts from human HL60 cells and mouse raw 264.7 cells were mixed in a one to one (1:1) ratio.
(§10) Sepharose®-beads with the immobilized ligands (35 μl beads per aliquot) were equilibrated in lysis buffer and incubated with a cell lysate sample containing 5 mg of protein on an end-over-end shaker (Roto Shake Genie, Scientific Industries Inc.) for 60 minutes at 4° C. Beads were collected, transferred to Mobicol-columns (MoBiTech 10055) and washed with 10 ml lysis buffer containing 0.4% NP40 detergent, followed by 5 ml lysis buffer containing 0.2% detergent. To elute bound proteins, 60 μl 2× SDS sample buffer was added to the column. The column was incubated for 30 minutes at 4° C. and the eluate was transferred to a siliconized microfuge tube by centrifugation. Proteins were then alkylated with 108 mM iodoacetamid. Proteins were then separated by SDS-Polyacrylamide electrophoresis (SDS-PAGE). Suitable gel bands were cut out and subjected to in-gel proteolytic digestion with trypsin. […]

[6] = molecular target: T5, PIK4Ca (Homo sapiens, UniProt P42356); assay: as above; conditions: HL-60 + RAW 264.7 mixed lysate
T5 construct: Cell lysates from a human (HL60) and a mouse cell line (Raw 264.7) were prepared; endogenous in cells; host or cells: HL60
Procedure: as §7, §8, §9, §10

[7] = molecular target: T6, PIK3Cd (PI3Kδ) (Homo sapiens, UniProt O00329); assay: as above; conditions: for IC50: HL-60 + RAW 264.7 mixed lysate
T6 construct: Cell lysates from a human (HL60) and a mouse cell line (Raw 264.7) were prepared; endogenous in cells; host or cells: HL60
T6 sequence (O00329 whole entry): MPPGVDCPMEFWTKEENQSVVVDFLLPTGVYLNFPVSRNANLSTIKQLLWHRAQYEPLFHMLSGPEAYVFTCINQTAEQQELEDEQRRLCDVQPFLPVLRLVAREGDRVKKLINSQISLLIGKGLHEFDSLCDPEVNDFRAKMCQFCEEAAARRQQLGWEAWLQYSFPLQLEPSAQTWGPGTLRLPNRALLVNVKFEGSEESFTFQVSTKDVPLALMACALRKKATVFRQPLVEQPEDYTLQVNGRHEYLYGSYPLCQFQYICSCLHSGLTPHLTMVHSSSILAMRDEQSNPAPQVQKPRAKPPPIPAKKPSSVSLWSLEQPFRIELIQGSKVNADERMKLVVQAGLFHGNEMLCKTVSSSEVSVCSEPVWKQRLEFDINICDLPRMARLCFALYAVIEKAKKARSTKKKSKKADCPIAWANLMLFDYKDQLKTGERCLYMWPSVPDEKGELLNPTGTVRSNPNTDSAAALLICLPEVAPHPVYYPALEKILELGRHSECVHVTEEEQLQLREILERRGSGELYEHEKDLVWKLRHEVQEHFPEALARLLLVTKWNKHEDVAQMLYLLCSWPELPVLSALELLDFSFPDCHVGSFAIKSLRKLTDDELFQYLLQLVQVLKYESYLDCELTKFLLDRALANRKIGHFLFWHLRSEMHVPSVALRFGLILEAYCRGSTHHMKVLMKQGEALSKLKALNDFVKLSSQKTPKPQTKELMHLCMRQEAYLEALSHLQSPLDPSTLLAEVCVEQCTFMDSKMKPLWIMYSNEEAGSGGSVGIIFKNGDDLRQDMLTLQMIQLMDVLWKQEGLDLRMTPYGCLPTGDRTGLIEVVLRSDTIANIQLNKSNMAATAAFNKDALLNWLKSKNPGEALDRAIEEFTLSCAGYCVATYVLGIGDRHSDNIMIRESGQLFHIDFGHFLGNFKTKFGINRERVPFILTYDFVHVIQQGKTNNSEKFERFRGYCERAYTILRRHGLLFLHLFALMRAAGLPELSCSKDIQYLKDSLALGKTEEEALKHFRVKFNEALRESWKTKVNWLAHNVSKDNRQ
T6 sequence (P27986 whole entry partner): as the sequence (P27986 whole entry partner) above
Procedure: as §7, §8, §9, §10

[8] = molecular target: T7, PIK3R4 (Homo sapiens, UniProt Q99570); assay: as above; conditions: Experiment 1 (human/mouse 1); HL-60 + RAW 264.7 mixed lysate
T7 construct: Cell lysates from a human (HL60) and a mouse cell line (Raw 264.7) were prepared; endogenous in cells; host or cells: HL60
Procedure: as §7, §8, §9, §10

[9] = molecular target: T8, PIK3Cd (PI3Kδ) (Mus musculus, UniProt O35904); assay: as above; conditions: HL-60 + RAW 264.7 mixed lysate
T8 construct: Cell lysates from a human (HL60) and a mouse cell line (Raw 264.7) were prepared; endogenous in cells; host or cells: RAW264.7
Procedure: as §7, §8, §9, §10

[10] = molecular target: T9, PIK3Cg (PI3Kγ) (Mus musculus, UniProt Q9JHG7); assay: as above; conditions: for IC50: HL-60 + RAW 264.7 mixed lysate
T9 construct: Cell lysates from a human (HL60) and a mouse cell line (Raw 264.7) were prepared; endogenous in cells; host or cells: RAW264.7
Procedure: as §7, §8, §9, §10

[11] = molecular target: T10, PIK3C3 (Homo sapiens, UniProt Q8NEB9); assay: as above; conditions: Experiment 1 (human/mouse 1); HL-60 + RAW 264.7 mixed lysate
T10 construct: Cell lysates from a human (HL60) and a mouse cell line (Raw 264.7) were prepared; endogenous in cells; host or cells: HL60
Procedure: as §7, §8, §9, §10

[12] = molecular target: T11, PIK3Cb (PI3Kbeta) (Mus musculus, UniProt Q8BTI9); assay: as above; conditions: HL-60 + RAW 264.7 mixed lysate
T11 construct: Cell lysates from a human (HL60) and a mouse cell line (Raw 264.7) were prepared; endogenous in cells; host or cells: RAW264.7
Procedure: as §7, §8, §9, §10

[13] = molecular target: T12, PIK3Cg (PI3Kγ) (Homo sapiens, UniProt P48736); assay: as above; conditions: for IC50: HL-60 + RAW 264.7 mixed lysate
T12 construct: Cell lysates from a human (HL60) and a mouse cell line (Raw 264.7) were prepared; endogenous in cells; host or cells: HL60
T12 sequence (P48736 whole entry): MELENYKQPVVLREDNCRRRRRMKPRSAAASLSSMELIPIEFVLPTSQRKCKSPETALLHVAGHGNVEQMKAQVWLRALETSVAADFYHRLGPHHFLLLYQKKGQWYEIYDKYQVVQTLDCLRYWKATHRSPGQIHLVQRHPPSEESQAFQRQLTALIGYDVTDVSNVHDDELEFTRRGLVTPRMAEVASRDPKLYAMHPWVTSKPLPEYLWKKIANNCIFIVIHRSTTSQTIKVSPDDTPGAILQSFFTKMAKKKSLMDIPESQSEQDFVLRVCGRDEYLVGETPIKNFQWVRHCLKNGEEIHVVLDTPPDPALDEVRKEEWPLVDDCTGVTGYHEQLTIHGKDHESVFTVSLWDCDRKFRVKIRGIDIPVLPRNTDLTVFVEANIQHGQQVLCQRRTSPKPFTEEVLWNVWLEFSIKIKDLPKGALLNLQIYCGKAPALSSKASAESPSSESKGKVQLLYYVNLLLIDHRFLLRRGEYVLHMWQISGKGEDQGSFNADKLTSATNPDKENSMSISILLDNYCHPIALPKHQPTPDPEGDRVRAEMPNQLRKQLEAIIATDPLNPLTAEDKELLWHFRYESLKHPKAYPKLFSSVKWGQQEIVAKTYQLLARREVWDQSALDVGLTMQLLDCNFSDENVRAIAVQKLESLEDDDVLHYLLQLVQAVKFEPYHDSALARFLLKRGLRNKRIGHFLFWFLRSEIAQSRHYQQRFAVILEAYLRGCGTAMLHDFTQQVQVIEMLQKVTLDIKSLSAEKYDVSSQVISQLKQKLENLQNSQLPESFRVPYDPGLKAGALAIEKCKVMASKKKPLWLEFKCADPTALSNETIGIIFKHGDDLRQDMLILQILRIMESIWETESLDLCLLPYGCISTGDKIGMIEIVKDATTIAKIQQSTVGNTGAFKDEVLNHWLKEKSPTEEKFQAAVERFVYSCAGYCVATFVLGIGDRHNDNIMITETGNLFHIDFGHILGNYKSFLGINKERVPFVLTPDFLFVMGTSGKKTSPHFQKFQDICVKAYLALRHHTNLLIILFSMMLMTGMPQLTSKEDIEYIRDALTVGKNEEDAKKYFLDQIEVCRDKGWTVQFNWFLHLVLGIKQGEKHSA
Procedure: as §7, §8, §9, §10

[14] = molecular target: T13, PIK3Cb (PI3Kbeta) (Homo sapiens, UniProt P42338); assay: as above; conditions: for IC50: HL-60 + RAW 264.7 mixed lysate
T13 construct: Cell lysates from a human (HL60) and a mouse cell line (Raw 264.7) were prepared; endogenous in cells; host or cells: HL60
T13 sequence (P42338 whole entry): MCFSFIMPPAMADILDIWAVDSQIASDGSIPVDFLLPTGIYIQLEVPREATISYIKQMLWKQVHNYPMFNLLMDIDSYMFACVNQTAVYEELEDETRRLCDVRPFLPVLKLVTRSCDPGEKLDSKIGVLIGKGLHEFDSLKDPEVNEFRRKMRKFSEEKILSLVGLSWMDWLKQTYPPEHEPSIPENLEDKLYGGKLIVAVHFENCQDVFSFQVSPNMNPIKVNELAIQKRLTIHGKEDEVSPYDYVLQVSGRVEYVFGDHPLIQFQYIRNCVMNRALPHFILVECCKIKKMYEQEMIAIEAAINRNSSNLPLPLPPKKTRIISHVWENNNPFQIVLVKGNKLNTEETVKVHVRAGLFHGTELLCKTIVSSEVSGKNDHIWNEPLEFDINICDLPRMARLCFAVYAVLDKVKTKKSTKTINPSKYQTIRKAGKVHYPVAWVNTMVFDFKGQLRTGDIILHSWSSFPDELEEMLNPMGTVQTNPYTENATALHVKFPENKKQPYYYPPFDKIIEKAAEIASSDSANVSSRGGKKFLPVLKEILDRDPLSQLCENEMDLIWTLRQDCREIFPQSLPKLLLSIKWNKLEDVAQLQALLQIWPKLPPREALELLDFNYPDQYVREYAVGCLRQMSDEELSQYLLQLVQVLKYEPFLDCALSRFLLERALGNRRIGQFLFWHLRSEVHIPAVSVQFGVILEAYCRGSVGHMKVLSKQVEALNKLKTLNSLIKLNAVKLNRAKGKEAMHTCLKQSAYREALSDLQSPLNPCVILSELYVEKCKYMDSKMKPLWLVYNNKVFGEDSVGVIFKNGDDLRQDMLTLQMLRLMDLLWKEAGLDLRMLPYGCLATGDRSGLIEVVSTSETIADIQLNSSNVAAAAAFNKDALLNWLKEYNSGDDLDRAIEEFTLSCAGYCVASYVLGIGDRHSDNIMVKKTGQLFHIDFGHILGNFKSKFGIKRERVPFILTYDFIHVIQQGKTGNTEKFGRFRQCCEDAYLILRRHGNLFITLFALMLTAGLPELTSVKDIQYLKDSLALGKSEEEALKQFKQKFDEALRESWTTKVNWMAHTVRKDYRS
T13 sequence (P27986 whole entry partner): as the sequence (P27986 whole entry partner) above
Procedure: as §7, §8, §9, §10

[15] = molecular target: T14, PIK4Cb (Homo sapiens, UniProt Q9UBF8); assay: as above; conditions: HL-60 + RAW 264.7 mixed lysate
T14 construct: Cell lysates from a human (HL60) and a mouse cell line (Raw 264.7) were prepared; endogenous in cells; host or cells: HL60
Procedure: as §7, §8, §9, §10

[16] = potency ratio across species, average of two experiments

- potency for PI3Kβ in rat compared to human [1]: two- to four-fold lower
- potency for PI3Kβ in mouse compared to human [2]: two- to four-fold lower
- potency for PI3Kγ in mouse compared to human [3]: two- to four-fold lower
SMILES: CC(C)(C)NS(=O)(=O)c1cncc(-c2cc(F)c3nc(N)nn3c2)c1 [compound 2]
- potency for PI3Kγ in rat compared to human [4]: two- to four-fold lower

- IC50 ([5]; Experiment 1 (human/mouse 1)): 2370 nM
- IC50 ([5]; Experiment 2 (human/mouse 2)): 2600 nM
- Average ratio human mouse, PIK3Ca [5, 16]: app. 1
- IC50 ([6]; Experiment 1 (human/mouse 1)): ≥ 3000 nM
- IC50 ([6]; Experiment 2 (human/mouse 2)): ≥ 3000 nM
- IC50 ([7]; Experiment 1 (human/mouse 1)): 1060 nM
- IC50 ([7]; Experiment 2 (human/mouse 2)): 1520 nM
- Average ratio human mouse, PIK3Cd [7, 16]: 1.0
- IC50 [8]: ≥ 3000 nM
- IC50 ([9]; Experiment 1 (human/mouse 1)): 1310 nM
- IC50 ([9]; Experiment 2 (human/mouse 2)): 1290 nM
- IC50 ([10]; Experiment 1 (human/mouse 1)): 57 nM
- IC50 ([10]; Experiment 2 (human/mouse 2)): 71 nM
- IC50 ratio for PIK3CD and PIK3CG (selectivity window) ([10]; in mouse): 23
- IC50 [11]: ≥ 3000 nM
- IC50 ([12]; Experiment 1 (human/mouse 1)): 251 nM
- IC50 ([12]; Experiment 2 (human/mouse 2)): 162 nM
- IC50 ([13]; Experiment 1 (human/mouse 1)): 22 nM
- IC50 ([13]; Experiment 2 (human/mouse 2)): 27 nM
- ratio of the IC50 for PIK3CD and PIK3CG (selectivity window) ([13]; in humans): 48
- Average ratio human mouse, PIK3Cg [13, 16]: 2.61
- IC50 ([14]; Experiment 1 (human/mouse 1)): 136 nM
- IC50 ([14]; Experiment 2 (human/mouse 2)): 283 nM
- Average ratio human mouse, PIK3Cb [14, 16]: 0.87
- IC50 ([15]; Experiment 1 (human/mouse 1)): ≥ 3000 nM
- IC50 ([15]; Experiment 2 (human/mouse 2)): ≥ 3000 nM
SMILES: CC(C)(C)NS(=O)(=O)c1cncc(-c2ccc3nc(N)nn3c2)c1 [compound 1]
